From the NIST ThermoML archive (doi:10.1016/j.jct.2012.01.011)
± gives the expanded uncertainty stated by the source.

Experiment: molar heat capacity at constant pressure
Conditions: Liquid, Flow calorimetry

Row | SMILES | molar heat capacity at constant pressure (293.15 K, 100 kPa) | molar heat capacity at constant pressure (293.15 K, 10000 kPa) | molar heat capacity at constant pressure (293.15 K, 20000 kPa) | molar heat capacity at constant pressure (293.15 K, 30000 kPa) | molar heat capacity at constant pressure (313.15 K, 100 kPa) | molar heat capacity at constant pressure (313.15 K, 10000 kPa) | molar heat capacity at constant pressure (313.15 K, 20000 kPa) | molar heat capacity at constant pressure (313.15 K, 30000 kPa) | molar heat capacity at constant pressure (333.15 K, 100 kPa) | molar heat capacity at constant pressure (333.15 K, 10000 kPa) | molar heat capacity at constant pressure (333.15 K, 20000 kPa) | molar heat capacity at constant pressure (333.15 K, 30000 kPa) | molar heat capacity at constant pressure (353.15 K, 100 kPa) | molar heat capacity at constant pressure (353.15 K, 10000 kPa) | molar heat capacity at constant pressure (353.15 K, 20000 kPa) | molar heat capacity at constant pressure (353.15 K, 30000 kPa)
1 | CC(C)CCCC(C)CCCC(C)CCCCC(C)CCCC(C)CCCC(C)C (stereo not drawn) [2,6,10,15,19,23-hexamethyltetracosane] | 879 ± 8.9 J/K/mol | 873.5 ± 8.8 J/K/mol | 868.5 ± 8.8 J/K/mol | 865.5 ± 8.7 J/K/mol | 904.4 ± 9.1 J/K/mol | 898.9 ± 9.1 J/K/mol | 896.4 ± 9.1 J/K/mol | 893.4 ± 9 J/K/mol | 943.3 ± 9.5 J/K/mol | 940.8 ± 9.5 J/K/mol | 936.1 ± 9.5 J/K/mol | 929.3 ± 9.4 J/K/mol | 978.8 ± 9.9 J/K/mol | 973.7 ± 9.8 J/K/mol | 963.2 ± 9.7 J/K/mol | 959.8 ± 9.7 J/K/mol
2 | CCCCC(CC)COC(=O)CCCCCCCCC(=O)OCC(CC)CCCC (stereo not drawn) [bis(2-ethylhexyl) decanedioate] | 810.3 ± 8.2 J/K/mol | 808.5 ± 8.2 J/K/mol | 805.6 ± 8.1 J/K/mol | 803 ± 8.1 J/K/mol | 846.5 ± 8.6 J/K/mol | 843.5 ± 8.5 J/K/mol | 840.1 ± 8.5 J/K/mol | 838.4 ± 8.5 J/K/mol | 878.1 ± 8.9 J/K/mol | 875.5 ± 8.8 J/K/mol | 873.4 ± 8.8 J/K/mol | 871.7 ± 8.8 J/K/mol | 910.9 ± 9.2 J/K/mol | 909.7 ± 9.2 J/K/mol | 907.1 ± 9.2 J/K/mol | 906.3 ± 9.2 J/K/mol
3 | CCCCC(CC)COC(=O)c1ccccc1C(=O)OCC(CC)CCCC (stereo not drawn) [bis(2-ethylhexyl) 1,2-benzenedicarboxylate] | 703 ± 7.1 J/K/mol | 701.5 ± 7.1 J/K/mol | 699.9 ± 7.1 J/K/mol | 699.6 ± 7.1 J/K/mol | 726.9 ± 7.3 J/K/mol | 724.9 ± 7.3 J/K/mol | 723 ± 7.3 J/K/mol | 722 ± 7.3 J/K/mol | 751.3 ± 7.6 J/K/mol | 750 ± 7.6 J/K/mol | 747.5 ± 7.6 J/K/mol | 746 ± 7.5 J/K/mol | 774.5 ± 7.8 J/K/mol | 770.5 ± 7.8 J/K/mol | 767.9 ± 7.8 J/K/mol | 763.4 ± 7.7 J/K/mol
